Where no end group is shown, it is not given here.

In general, EC50 refers to the concentration at which the effect is half-maximal.

Common to all, as to assay: PRISM Matrix ELISA G assay, peptide titration
Common to all, as to type: binding
Background: ELISA stands for enzyme-linked immunosorbent assay.

The target of one assay is T1, PDZ protein Rim2 (Homo sapiens, UniProt Q9UQ26).
T1 construct: made in house
T1 sequence (Q9UQ26 632-757): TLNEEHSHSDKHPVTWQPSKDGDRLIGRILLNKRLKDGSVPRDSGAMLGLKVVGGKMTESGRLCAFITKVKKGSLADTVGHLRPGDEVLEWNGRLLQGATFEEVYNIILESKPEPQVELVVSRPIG
As to conditions: for EC50: read-out: EC50 of binding to the PDZ protein Rim2, regular G assay titration, GST/PDZ fusion (FIG. 1C, FIG. 4C); for binding to the PDZ protein Rim2, in words: summary of the titrations. The protocol:
(§1) (1) A PDZ-domain polypeptide is bound to a surface, e.g. a protein binding surface. In a preferred embodiment, a GST/PDZ fusion protein containing one or more PDZ domains is bound to a polystyrene 96-well plate. […] In one embodiment, the GST/PDZ fusion protein is bound via an anti-GST antibody that is coated onto the 96-well plate. Adequate binding to the plate can be achieved when: • a. 100 μL per well of 5 μg/mL goat anti-GST polyclonal antibody (Pierce) in PBS is added to a polystyrene 96-well plate (e.g., Nunc Polysorb) at 4° C. for 12 hours. • b. The plate is blocked by addition of 200 μL per well of PBS/BSA for 2 hours at 4° C. • c. The plate is washed 3 times with PBS. • d. 50 μL per well of 5 μg/mL GST/PDZ fusion protein) or, as a negative control, GST polypeptide alone (i.e. not a fusion protein) in PBS/BSA is added to the plate for 2 hours at 4° C. • e. the plate is again washed 3 times with PBS.
(§2) (2) Biotinylated PL peptides are allowed to react with the surface by addition of 50 μL per well of 20 μM solution of the biotinylated peptide in PBS/BSA for 10 minutes at 4° C., followed by an additional 20 minute incubation at 25° C. The plate is washed 3 times with ice cold PBS.
(§3) (3) The binding of the biotinylated peptide to the GST/PDZ fusion protein surface can be detected using a variety of methods and detectors. In an exemplary procedure, 100 μL per well of 0.5 μg/mL streptavidin-horse radish peroxidase (HRP) conjugate dissolved in BSA/PBS is added and allowed to react for 20 minutes at 4° C. The plate is then washed 5 times with 50 mM Tris pH 8.0 containing 0.2% Tween 20, and developed by addition of 100 μL per well of HRP-substrate solution (TMB, Dako) for 20 minutes at room temperature (RT). The reaction of the HRP and its substrate is terminated by addition of 100 μL per well of 1 M sulfuric acid, and the optical density (O.D.) of each well of the plate is read at […].
(§4) (4) Specific binding of a PL peptide and a PDZ domain polypeptide is determined by comparing the signal from the well(s) in which the PL peptide and PDZ domain polypeptide are combined, with the background signal(s). The background signal is the signal found in the negative control(s). Typically a specific or selective reaction is at least twice background signal, more typically more than 5 times background, and most typically 10 or more times the background signal. In addition, a statistically significant reaction involves multiple measurements of the reaction with the signal and the background differing by at least two standard errors, more typically four standard errors, and most typically six or more standard errors. Correspondingly, a statistical test (e.g. a T-test) comparing repeated measurements of the signal with -repeated measurements of the background will result in a p-value <0.05, more typically a p-value <0.01, and most typically a p-value <0.001 or less. As noted, in an embodiment of the “G” assay, the signal from binding of a given PL peptide to immobilized (surface bound) GST polypeptide alone is one suitable negative control (sometimes referred to as “B 1”). Because all measurement are done in multiples (i.e. at least duplicate) the arithmetic mean (or, equivalently, average) of several measurements is used in determining the binding, and the standard error of the mean is used in determining the probable error in the measurement of the binding. The standard error of the mean of N measurements equals the square root of the following: the sum of the squares of the difference between each measurement and the mean, divided by the product of (N) and (N−1). Thus, in one embodiment, specific binding of the PDZ protein to the platebound peptide is determined by comparing the mean signal (“mean S”) and standard error of the signal (“SE”) for a particular PL-PDZ combination with the mean B I.
(§5) Two different types of ELISA assays were used to test the HIV Peptides 1904 and 1905. […]

The target in assay [1] is T2, PDZ protein ZO-1 d2 (domain 2) (Homo sapiens, UniProt Q07157, DEL264-264).
T2 construct: made in house
T2 sequence (Q07157 with tags, fused parts or gaps DEL264-264): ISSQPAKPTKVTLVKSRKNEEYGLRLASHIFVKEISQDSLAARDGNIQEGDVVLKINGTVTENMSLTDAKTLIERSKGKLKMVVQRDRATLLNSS
As to conditions: for EC50: read-out: EC50 of binding to the PDZ protein ZO-1 d2, regular G assay titration, GST/PDZ fusion (FIG. 1B, FIG. 4B); for binding to the PDZ protein ZO-1 d2, in words: summary of the titrations. The protocol: as §1, §2, §3, §4, §5

In a further assay the target is T3, PDZ protein NSP (Homo sapiens, UniProt Q92743).
T3 construct: made in house
T3 sequence (Q92743 359-473): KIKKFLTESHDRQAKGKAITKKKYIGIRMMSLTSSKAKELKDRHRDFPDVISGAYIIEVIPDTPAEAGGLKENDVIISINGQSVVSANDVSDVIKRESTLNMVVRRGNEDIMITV
As to conditions: for binding to the PDZ protein NSP, in words: summary of the titrations. The protocol:
as §1, §2, §3, §4, §5

Turning to YGRKKRRQRRRRQGFERALL-OH [Peptide 1905], the EC50 at PDZ protein Rim2 turned out to be 182 nM; in assay [1] it was 184 nM; at PDZ protein NSP (read-out: EC50 of binding to the PDZ protein NSP, regular G assay titration, GST/PDZ fusion (FIG. 1D, FIG. 4D)), 166 nM. The “binding to the PDZ protein Rim2, in words” value on PDZ protein Rim2 was “strong binding”. Besides, in assay [1], the “binding to the PDZ protein ZO-1 d2, in words” value is “strong binding”. Moreover, the “binding to the PDZ protein NSP, in words” value at PDZ protein NSP was “strong binding”.

On to YGRKKRRQRRRRQGLERILL-OH [Peptide 1904], for which, on PDZ protein Rim2, the EC50 is 410 nM and the “binding to the PDZ protein Rim2, in words” value is “strong binding”. Besides, in assay [1], the EC50 amounted to 170 nM and the “binding to the PDZ protein ZO-1 d2, in words” value is “strong binding”. The “binding to the PDZ protein NSP, in words” value at PDZ protein NSP is reported as “strong binding”.

The values are drawn from patent US20070014803A1, “METHODS AND COMPOSITIONS FOR DIAGNOSIS AND TREATMENT OF VIRAL AND BACTERIAL INFECTIONS” (Arbor Vita Corporation, priority 2005, published 2007).
